Results as given in patent US20250186405A1, “Compound For Use In Treating Narcolepsy” (Alkermes, Inc., priority 2023, published 2025).

System: subjects with idiopathic hypersomnia (IH)
Assay: Part 6 IH: Karolinska Sleepiness Scale (KSS)
Format: in vivo, human
Settings: for Change From Day −1 in Average Karolinska Sleepiness Scale, LSM difference vs placebo: N = 8; for Change From Day −1 in Average Karolinska Sleepiness Scale, LSM: N = 8, average of 1, 2, 4, 6, 8 h
Experimental: At points within the study, subjects were asked to rate their sleepiness using the KSS with regard to the level of sleepiness they experienced over the past 5 minutes.
The KSS is a validated, self-reported outcome measure of subjective sleepiness. The KSS was developed as a one-dimensional measure of sleepiness and has been validated against assessments like EEG and electrooculography activity (Akerstedt and Gillberg 1990). The KSS is comprised of a single question that asks the subject to rate their sleepiness in the immediately preceding 5 minutes on a 9-point scale where 1=extremely alert and 9=very sleepy, great effort to keep awake, fighting sleep. The KSS takes approximately 10 to 15 seconds to complete. Thus, the KSS is well suited for repeated measurement at short intervals as it assesses situational sleepiness within a short timeframe.
The PD parameters in the POC evaluation (e.g., changes from baseline in sleep latency on MWT, number of errors on SART and level of sleepiness on KSS at matched time points) were summarized using descriptive statistics for each time point by dose level.

SMILES: CS(=O)(=O)N[C@H]1CCCN2C(=O)COc3ccccc3C3CCC(CC3)OCC12 (stereo partly drawn) [Compound A, N-[(4S,4aR,7α,10α)-1,2,3,4,4a,5,7,8,9,10,16,17-dodecahydro-17-oxo-7,10-ethanopyrido[1,2-d][1,7,4]benzodioxaazacyclotridecin-4-yl]methanesulfonamide]
- LS mean difference vs placebo in change from Day −1, average KSS (5 mg): −1.08
- Change From Day −1 in Average Karolinska Sleepiness Scale, LSM difference vs placebo (5 mg): −1.08
- Change From Day −1 in Average Karolinska Sleepiness Scale, LSM (5 mg): −1.60
- LS mean difference vs placebo in change from Day −1, average KSS (12 mg): −0.80
- Change From Day −1 in Average Karolinska Sleepiness Scale, LSM difference vs placebo (12 mg): −0.80
- Change From Day −1 in Average Karolinska Sleepiness Scale, LSM (12 mg): −1.33
- LS mean difference vs placebo in change from Day −1, average KSS (25 mg): −2.18
- Change From Day −1 in Average Karolinska Sleepiness Scale, LSM difference vs placebo (25 mg): −2.18
- Change From Day −1 in Average Karolinska Sleepiness Scale, LSM (25 mg): −2.70
